PubChem BioAssay (NCI)
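These data come from cells grown in 96-well plates and exposed to compound for 48 hours at five concentrations. TGI is the concentration that stops growth completely.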

Experiments:
Test in all cases: inhibition of tumour cell growth, NCI panel, 48 h
[1] = system: NCI-H23 lung
[2] = system: MDA-N
[3] = system: MCF7 breast
[4] = system: UACC-62 melanoma
[5] = system: HT29 colon
[6] = system: CAKI-1 renal
[7] = system: HCC-2998 colon
[8] = system: PC-3 prostate
[9] = system: RXF 393 renal
[10] = system: CCRF-CEM leukemia
[11] = system: 786-0 renal
[12] = system: SR leukemia
[13] = system: BT-549 breast
[14] = system: DU-145 prostate
[15] = system: SK-MEL-28 melanoma
[16] = system: TK-10 renal
[17] = system: SK-OV-3 ovarian
[18] = system: SF-268 CNS
[19] = system: A498 renal
[20] = system: SN12C renal
[21] = system: SK-MEL-5 melanoma
[22] = system: MALME-3M melanoma
[23] = system: MDA-MB-435
[24] = system: HS 578T breast
[25] = system: M14 melanoma
[26] = system: NCI/ADR-RES ovarian
[27] = system: LOX IMVI melanoma
[28] = system: OVCAR-8 ovarian
[29] = system: HCT-15 colon
[30] = system: OVCAR-4 ovarian
[31] = system: T-47D breast
[32] = system: HL-60(TB) leukemia
[33] = system: NCI-H522 lung
[34] = system: SNB-19 CNS
[35] = system: SW-620 colon
[36] = system: OVCAR-3 ovarian
[37] = system: HOP-62 NSCLC
[38] = system: U251 CNS
[39] = system: ACHN renal
[40] = system: EKVX NSCLC
[41] = system: SF-295 CNS
[42] = system: HOP-92 NSCLC
[43] = system: UO-31 renal
[44] = system: A549 NSCLC
[45] = system: MDA-MB-231 breast
[46] = system: RPMI-8226 leukemia
[47] = system: SNB-75 CNS
[48] = system: K-562 leukemia
[49] = system: NCI-H460 lung
[50] = system: MOLT-4 leukemia
[51] = system: KM12 colon
[52] = system: COLO 205 colon
[53] = system: NCI-H226 lung
[54] = system: HCT-116 colon
[55] = system: OVCAR-5 ovarian
[56] = system: IGROV1 ovarian
[57] = system: SK-MEL-2 melanoma
[58] = system: UACC-257 melanoma
[59] = system: SF-539 CNS

Measured: TGI

CC(C)(C)OC(=O)C1CCC/C1=N/Nc1ccc([N+](=O)[O-])cc1[N+](=O)[O-] (stereo unspecified)
73.9 µM: [47]
53.2 µM: [23]
88.9 µM: [41]
88.1 µM: [31]
93.2 µM: [13]
78.5 µM: [54]
56.1 µM: [38]
63.5 µM: [1]
89.9 µM: [40]
29.3 µM: [21]
65.4 µM: [19]
not listed: [57] | [58] | [59]
> 100 µM: all other assays above

COc1cc(C=C(c2ccc(N(C)C)cc2)c2ccc(N(C)C)cc2)c2ccccc2c1OC
40.7 µM: [2]
74 µM: [36]
not listed: [19] | [35] | [59]
> 100 µM: all other assays above

Nc1nccc2c1ncn2[C@H]1C[C@H](O)[C@@H](CO)O1
not listed: [11] | [18] | [32] | [33] | [39] | [40] | [44] | [59]
> 100 µM: all other assays above

O=C(/C=C/c1ccc(O)c(O)c1)OCCCOC(=O)/C=C/c1ccc(O)c(O)c1
53.6 µM: [41]
67.9 µM: [37]
78 µM: [1]
79.6 µM: [9]
49.4 µM: [4]
40.6 µM: [33]
32.9 µM: [21]
84.4 µM: [42]
80.1 µM: [2]
32.8 µM: [36]
69.6 µM: [27]
65.8 µM: [25]
not listed: [32] | [53]
> 100 µM: all other assays above

CCOC(=O)CCc1cccc2c1oc1c(CCNC(=O)OCC3c4ccccc4-c4ccccc43)cccc12
68.4 µM: [13]
58.4 µM: [22]
63.6 µM: [4]
81.1 µM: [31]
52.3 µM: [37]
45.4 µM: [6]
42.1 µM: [47]
85.6 µM: [42]
16.5 µM: [24]
70.3 µM: [18]
70.6 µM: [34]
not listed: [5] | [9] | [59]
> 100 µM: all other assays above
